In brackets after ≈: the same amount, converted by molar mass.
Experiments:
[1] = test system: Nakaseomyces glabratus; experiment: Antifungal activity against Candida glabrata measured after 24 hrs by broth microdilution assay; type: functional
[2] = biological target: T1, Lanosterol 14-alpha demethylase (Candida albicans (strain SC5314 / ATCC MYA-2876) (Yeast), UniProt P10613); experiment: Inhibition of CYP51 in Candida albicans ATCC SC5314 assessed as lanosterol level at 8 ug/ml after 16 hrs by GC-MS analysis (reference value: 1.7%); parameters: scale not given: the % may be the effect or the level left; settings: candida albicans sc5314, 16 h, at 8 µg/mL
[3] = biological target: T1, Lanosterol 14-alpha demethylase; experiment: Inhibition of CYP51 in Candida albicans ATCC SC5314 assessed as ergosterol level at 8 ug/ml after 16 hrs by GC-MS analysis (reference value: 98.3%); parameters: scale not given: the % may be the effect or the level left; settings: candida albicans sc5314, 16 h, at 8 µg/mL
[4] = test system: Candida albicans; experiment: Anti-biofilm activity in Candida albicans CPCC400616 assessed as inhibition of biofilm formation incubated for 24 hrs with 1.5 hrs precultured fungal suspension by XTT assay; type: functional
[5] = Hemolytic activity in rabbit RBC assessed as hemolysis ratio at 16 ug/ml measured after 3 hrs by microplate reader assay relative to control; type: ADME, cell-based, Oryctolagus cuniculus, Erythrocyte; settings: rabbit red blood cells (erythrocytes), at 16 µg/mL, read-out: Activity
[6] = biological target: T1, Lanosterol 14-alpha demethylase; experiment: Inhibition of CYP51 in Candida albicans ATCC SC5314 assessed as lanosterol level at 0.03125 ug/ml after 16 hrs by GC-MS analysis (reference value: 1.7%); parameters: scale not given: the % may be the effect or the level left; settings: candida albicans sc5314, 16 h, at 0.03125 µg/mL
[7] = biological target: T1, Lanosterol 14-alpha demethylase; experiment: Inhibition of CYP51 in Candida albicans ATCC SC5314 assessed as Obtusifoliol level at 0.03125 ug/ml after 16 hrs by GC-MS analysis (reference value: 0%); parameters: scale not given: the % may be the effect or the level left; settings: candida albicans sc5314, 16 h, at 0.03125 µg/mL
[8] = Metabolic stability in mouse liver microsomes assessed as clearance; type: ADME, Microsome; settings: read-out: CLH
[9] = Hemolytic activity in rabbit RBC assessed as hemolysis ratio at 4 ug/ml measured after 3 hrs by microplate reader assay relative to control; type: ADME, cell-based, Oryctolagus cuniculus, Erythrocyte; settings: rabbit red blood cells (erythrocytes), at 4 µg/mL, read-out: Activity
[10] = test system: Candida albicans; experiment: Anti-biofilm activity in Candida albicans CPCC400616 assessed as inhibition of biofilm formation incubated for 24 hrs with 24 hrs precultured fungal suspension by XTT assay; type: functional
[11] = biological target: T1, Lanosterol 14-alpha demethylase; experiment: Inhibition of CYP51 in Candida albicans ATCC SC5314 assessed as lanosterol level at […] ug/ml after 16 hrs by GC-MS analysis (reference value: 1.7%); parameters: scale not given: the % may be the effect or the level left; settings: candida albicans sc5314, 16 h, dose 0.125 µg/ml
[12] = test system: Candida albicans; experiment: Anti-biofilm activity in Candida albicans CPCC400616 assessed as inhibition of biofilm formation incubated for 24 hrs with 3 hrs precultured fungal suspension by XTT assay; type: functional
[13] = biological target: T1, Lanosterol 14-alpha demethylase; experiment: Inhibition of CYP51 in Candida albicans ATCC SC5314 assessed as Eburicol level at […] ug/ml after 16 hrs by GC-MS analysis (reference value: 0%); parameters: scale not given: the % may be the effect or the level left; settings: candida albicans sc5314, 16 h, dose 0.125 µg/ml
[14] = biological target: T1, Lanosterol 14-alpha demethylase; experiment: Inhibition of CYP51 in Candida albicans ATCC SC5314 assessed as Eburicol level at 8 ug/ml after 16 hrs by GC-MS analysis (reference value: 0%); parameters: scale not given: the % may be the effect or the level left; settings: candida albicans sc5314, 16 h, at 8 µg/mL
[15] = test system: Candida albicans; experiment: Anti-biofilm activity in Candida albicans CPCC400616 assessed as inhibition of biofilm formation incubated for 24 hrs with 6 hrs precultured fungal suspension by XTT assay; type: functional
[16] = biological target: T1, Lanosterol 14-alpha demethylase; experiment: Inhibition of CYP51 in Candida albicans ATCC SC5314 assessed as ergosterol level at 0.5 ug/ml after 16 hrs by GC-MS analysis (reference value: 98.3%); parameters: scale not given: the % may be the effect or the level left; settings: candida albicans sc5314, 16 h, at 0.5 µg/mL
[17] = test system: [Candida] zeylanoides; experiment: Antifungal activity against Candida zeylanoides CMGCC2.3739 measured after 24 hrs by broth microdilution assay; type: functional; settings: Dujonia zeylanoides
[18] = test system: Candida albicans; experiment: Antifungal activity against Candida albicans ATCC SC5314 measured after 24 hrs by broth microdilution assay; type: functional
[19] = Hemolytic activity in rabbit RBC assessed as hemolysis ratio at 8 ug/ml measured after 3 hrs by microplate reader assay relative to control; type: ADME, cell-based, Oryctolagus cuniculus, Erythrocyte; settings: rabbit red blood cells (erythrocytes), at 8 µg/mL, read-out: Activity
[20] = biological target: T1, Lanosterol 14-alpha demethylase; experiment: Inhibition of CYP51 in Candida albicans ATCC SC5314 assessed as lanosterol level at 0.5 ug/ml after 16 hrs by GC-MS analysis (reference value: 1.7%); parameters: scale not given: the % may be the effect or the level left; settings: candida albicans sc5314, 16 h, at 0.5 µg/mL
[21] = biological target: T1, Lanosterol 14-alpha demethylase; experiment: Inhibition of CYP51 in Candida albicans ATCC SC5314 assessed as ergosterol level at 2 ug/ml after 16 hrs by GC-MS analysis (reference value: 98.3%); parameters: scale not given: the % may be the effect or the level left; settings: candida albicans sc5314, 16 h, at 2 µg/mL
[22] = test system: HL-60; experiment: Cytotoxicity against human HL-60 cells assessed as reduction in cell viability incubated for 96 hrs by MTT assay; type: cell-based; settings: HL-60, 96 h
[23] = biological target: T1, Lanosterol 14-alpha demethylase; experiment: Inhibition of CYP51 in Candida albicans ATCC SC5314 assessed as Obtusifoliol level at 0.5 ug/ml after 16 hrs by GC-MS analysis (reference value: 0%); parameters: scale not given: the % may be the effect or the level left; settings: candida albicans sc5314, 16 h, at 0.5 µg/mL
[24] = biological target: T1, Lanosterol 14-alpha demethylase; experiment: Inhibition of CYP51 in Candida albicans ATCC SC5314 assessed as Obtusifoliol level at 2 ug/ml after 16 hrs by GC-MS analysis (reference value: 0%); parameters: scale not given: the % may be the effect or the level left; settings: candida albicans sc5314, 16 h, at 2 µg/mL
[25] = test system: Cryptococcus neoformans; experiment: Antifungal activity against Cryptococcus neoformans CMGCC2.3161 measured after 72 hrs by broth microdilution assay; type: functional
[26] = biological target: T1, Lanosterol 14-alpha demethylase; experiment: Inhibition of CYP51 in Candida albicans ATCC SC5314 assessed as Eburicol level at 0.03125 ug/ml after 16 hrs by GC-MS analysis (reference value: 0%); parameters: scale not given: the % may be the effect or the level left; settings: candida albicans sc5314, 16 h, at 0.03125 µg/mL
[27] = test system: PC-3; experiment: Cytotoxicity against human PC3 cells assessed as reduction in cell viability incubated for 96 hrs by MTT assay; type: cell-based; settings: PC-3, 96 h, read-out: IC50
[28] = biological target: T1, Lanosterol 14-alpha demethylase; experiment: Inhibition of CYP51 in Candida albicans ATCC SC5314 assessed as Eburicol level at 2 ug/ml after 16 hrs by GC-MS analysis (reference value: 0%); parameters: scale not given: the % may be the effect or the level left; settings: candida albicans sc5314, 16 h, at 2 µg/mL
[29] = test system: Aspergillus fumigatus; experiment: Antifungal activity against Aspergillus fumigatus CMGCC3.7795 measured after 72 hrs by broth microdilution assay; type: functional
[30] = Metabolic stability in mouse liver microsomes assessed as half life; type: ADME, Microsome
[31] = test system: Candida albicans; experiment: Antifungal activity against Candida albicans CPCC400616 measured after 24 hrs by broth microdilution assay; type: functional
[32] = biological target: T1, Lanosterol 14-alpha demethylase; experiment: Inhibition of CYP51 in Candida albicans ATCC SC5314 assessed as Obtusifoliol level at 8 ug/ml after 16 hrs by GC-MS analysis (reference value: 0%); parameters: scale not given: the % may be the effect or the level left; settings: candida albicans sc5314, 16 h, at 8 µg/mL
[33] = test system: Candida albicans; experiment: Fungicidal activity against Candida albicans CPCC400616 assessed as fungal killing incubated for 48 hrs followed by culturing on PDA plate for 24 hrs; type: functional; settings: time 72 hrs
[34] = biological target: T1, Lanosterol 14-alpha demethylase; experiment: Inhibition of CYP51 in Candida albicans ATCC SC5314 assessed as ergosterol level at 0.03125 ug/ml after 16 hrs by GC-MS analysis (reference value: 98.3%); parameters: scale not given: the % may be the effect or the level left; settings: candida albicans sc5314, 16 h, at 0.03125 µg/mL
[35] = Hemolytic activity in rabbit RBC assessed as hemolysis ratio at 1 ug/ml measured after 3 hrs by microplate reader assay relative to control; type: ADME, cell-based, Oryctolagus cuniculus, Erythrocyte; settings: rabbit red blood cells (erythrocytes), at 1 µg/mL, read-out: Activity

T1 sequence (P10613 whole entry): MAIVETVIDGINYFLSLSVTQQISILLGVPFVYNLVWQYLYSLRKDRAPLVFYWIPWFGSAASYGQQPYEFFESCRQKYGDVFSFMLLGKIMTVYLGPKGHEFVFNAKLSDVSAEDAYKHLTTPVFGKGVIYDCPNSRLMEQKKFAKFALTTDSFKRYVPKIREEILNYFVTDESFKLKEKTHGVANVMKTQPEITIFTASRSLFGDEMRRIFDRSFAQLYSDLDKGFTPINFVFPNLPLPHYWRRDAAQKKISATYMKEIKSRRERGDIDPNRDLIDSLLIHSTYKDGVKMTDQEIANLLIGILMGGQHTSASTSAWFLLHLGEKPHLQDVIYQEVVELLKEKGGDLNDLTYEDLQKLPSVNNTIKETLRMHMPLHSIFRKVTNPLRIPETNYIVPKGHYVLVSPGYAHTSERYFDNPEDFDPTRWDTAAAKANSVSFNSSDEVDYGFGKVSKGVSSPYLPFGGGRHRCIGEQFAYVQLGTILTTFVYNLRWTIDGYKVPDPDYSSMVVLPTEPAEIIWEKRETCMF

| SMILES | MIC [1] [µg/mL] | Activity [2] [%] | Activity [3] [%] | MIC50 [4] [µg/mL] | MIC80 [4] [µg/mL] | hemolysis at 3 h, 16 ug/ml [5] [%] | Activity [6] [%] | Activity [7] [%] | CLint scaled [8] [mL/min/kg] | hemolysis at 3 h, 4 ug/ml [9] [%] | MIC50 [10] [µg/mL] | MIC80 [10] [µg/mL] | Activity [11] [%] | MIC50 [12] [µg/mL] | MIC80 [12] [µg/mL] | Activity [13] [%] | Activity [14] [%] | MIC50 [15] [µg/mL] | MIC80 [15] [µg/mL] | Activity [16] [%] | other results |
| --- | --- | --- | --- | --- | --- | --- | --- | --- | --- | --- | --- | --- | --- | --- | --- | --- | --- | --- | --- | --- | --- |
| Fc1ccc([Se]C(Cn2ccnc2)c2ccc(F)cc2F)cc1 (stereo not drawn) | 1 (≈ 2.62 µM) | 5.7 | 2.1 | 4 (≈ 10.5 µM) | 8 (≈ 21 µM) | 100 | 4.1 | 17 | 282 | 0 | > 128 | > 128 | 9.9 | 8 (≈ 21 µM) | 16 (≈ 42 µM) | 73.2 | 82 | 64 (≈ 168 µM) | 128 (≈ 336 µM) | 4.9 | MIC [17]: 0.25 µg/mL (≈ 0.656 µM); MIC [18]: 0.02 µg/mL (≈ 0.0525 µM); hemolysis at 3 h, 8 ug/ml [19]: 0.33%; Activity [20]: 10.1%; Activity [21]: 2.2%; IC50 [22]: 24.8 µM; Activity [23]: 9.9%; Activity [24]: 10.8%; MIC [25]: 0.5 µg/mL (≈ 1.31 µM); Activity [26]: 70.2%; IC50 [27]: 54.4 µM; Activity [28]: 78%; MIC [29]: 4 µg/mL (≈ 10.5 µM); half-life [30]: 19.4 min; MIC [31]: 0.25 µg/mL (≈ 0.656 µM); Activity [32]: 10.2%; MFC99 [33]: 1 µg/mL (≈ 2.62 µM); Activity [34]: 8.7%; hemolysis at 3 h, 1 ug/ml [35]: 0% |
| Clc1ccc(COC(Cn2ccnc2)c2ccc(Cl)cc2Cl)c(Cl)c1 (stereo not drawn) [MICONAZOLE] | 0.5 (≈ 1.2 µM) | 7.4 | 4.1 | 16 (≈ 38.4 µM) | 128 (≈ 308 µM) | 94 | 10 | 7.2 | 660 | 81.8 | > 128 | > 128 | 9.5 | 32 (≈ 76.9 µM) | 128 (≈ 308 µM) | 64.8 | 80.7 | > 128 | > 128 | 7.1 | MIC [17]: 1 µg/mL (≈ 2.4 µM); MIC [18]: 0.03 µg/mL (≈ 0.0721 µM); hemolysis at 3 h, 8 ug/ml [19]: 87.3%; Activity [20]: 8.9%; Activity [21]: 5.2%; IC50 [22]: 0.8 µM; Activity [23]: 9%; Activity [24]: 6.1%; MIC [25]: 0.5 µg/mL (≈ 1.2 µM); Activity [26]: 70.6%; IC50 [27]: 13.4 µM; Activity [28]: 75.2%; MIC [29]: 2 µg/mL (≈ 4.81 µM); half-life [30]: 8.3 min; MIC [31]: 0.25 µg/mL (≈ 0.601 µM); Activity [32]: 7.8%; MFC99 [33]: 2 µg/mL (≈ 4.81 µM); Activity [34]: 12.2%; hemolysis at 3 h, 1 ug/ml [35]: 0.16% |

Source: ChEMBL document CHEMBL4813985, “Lead optimization generates selenium-containing miconazole CYP51 inhibitors with improved pharmacological profile for the treatment of fungal infections” (Eur J Med Chem, 2021)
